ChEMBL document CHEMBL4689842, “EUbOPEN Chemogenomics Library wave 1” (2021)

Columns and labels:
Assay type in all cases: toxicity, cell-based
Fibroblast = experiment: Incucyte cell viability with human fibroblast; conditions: 10 µM, compound concentration 10 uM
HEK-293T = experiment: Incucyte cell viability with HEK293T; conditions: human, 10 µM, compound concentration 10 uM
U2OS = experiment: Incucyte cell viability with U2OS; conditions: human, 10 µM, compound concentration 10 uM
[1] = 0 h, replicate number 2, timepoint 0 hours
[2] = 6 h, replicate number 1, timepoint 6 hours
[3] = 6 h, replicate number 2, timepoint 6 hours
[4] = 12 h, replicate number 1, timepoint 12 hours
[5] = 18 h, replicate number 1, timepoint 18 hours
[6] = 24 h, replicate number 1, timepoint 24 hours
[7] = 0 h, replicate number 1, timepoint 0 hours
[8] = 18 h, replicate number 2, timepoint 18 hours
[9] = 24 h, replicate number 2, timepoint 24 hours
[10] = 12 h, replicate number 2, timepoint 12 hours
Note: filed as whole numbers so only -1 and 0 and 1 occur.

Compound	Growth Rate (Fibroblast; [2])	Growth Rate (Fibroblast; [3])	Growth Rate (Fibroblast; [4])	Growth Rate (Fibroblast; [5])	Growth Rate (Fibroblast; [6])	Growth Rate (HEK-293T; [7])	Growth Rate (HEK-293T; [1])	Growth Rate (HEK-293T; [2])	Growth Rate (HEK-293T; [4])	Growth Rate (HEK-293T; [5])	Growth Rate (HEK-293T; [6])	Growth Rate (U2OS; [1])	Growth Rate (U2OS; [2])	Growth Rate (U2OS; [3])	Growth Rate (U2OS; [4])	Growth Rate (U2OS; [5])	Growth Rate (U2OS; [6])	Growth Rate (Fibroblast; [7])	Growth Rate (U2OS; [7])	Growth Rate (Fibroblast; [8])	further results
O=C(O)c1ccc(-c2coc3ncc(-c4ccccc4)cc23)cc1Cl	1	0	0	0	0	0	1	0	0	0	0	0	1	0	1	1	1				Growth Rate (Fibroblast; [1]): 0; Growth Rate (HEK-293T; [3]): 1
N[C@H](C(=O)O)c1ccc(C(=O)O)c(C(=O)O)c1	1		1	1	0	0		1	1	1	1			1	1	1	1	0	0		
COc1cccc(OC)c1-c1cc(C(=O)NC2(C(=O)O)C3CC4CC(C3)CC2C4)nn1-c1ccc(C(=O)N(C)CCCN(C)C)cc1C(C)C (stereo unspecified)	0		0	0	0	1	0	0	0	1	1	0		0	1	0	0	0		1	Growth Rate (Fibroblast; [9]): 1; Growth Rate (HEK-293T; [3]): 1; Growth Rate (HEK-293T; [10]): 1; Growth Rate (HEK-293T; [8]): 0; Growth Rate (U2OS; [10]): 0; Growth Rate (U2OS; [9]): 1
N#CC(Cc1ccc(O)cc1)c1ccc(O)cc1 (stereo unspecified) [DIARYLPROPIONITRILE]	0		0	0	0	1	0	1	0	0	0			0	1	0	1	0			Growth Rate (HEK-293T; [10]): 1; Growth Rate (HEK-293T; [8]): 1; Growth Rate (HEK-293T; [9]): 1; Growth Rate (U2OS; [10]): 0; Growth Rate (U2OS; [9]): 0
Cl.Cl.c1ccc([C@@H]2C[C@H]2NC2CCNCC2)cc1					1		1	0	1		1	1		1	1	1	1	0	0	1	Growth Rate (Fibroblast; [10]): 1
C[C@H](c1ccc(F)cc1)N(Cc1ccc(Cl)c(C(=O)O)c1)C(=O)c1cnc2ccccc2c1 [PF-05257137]		0			1	1	0	0	0	0	1				1	1	1	0	0	1	Growth Rate (Fibroblast; [10]): 1; Growth Rate (HEK-293T; [9]): 0
CCC(=O)N1CCOc2c(cc(-c3ccc(OC)c(OC)c3)cc2OC[C@H]2CCCN(C)C2)C1	0		1	1	1		1	0	0	0	0		0		1	1	1	0	0	0	Growth Rate (Fibroblast; [10]): 0; Growth Rate (Fibroblast; [9]): 0; Growth Rate (HEK-293T; [8]): 1
CC(=O)Nc1c(C(C)=O)c(=O)n(C)c2nc(-c3ccc(Cl)cc3Cl)c(-c3ccc(Cl)cc3)cc12 [NAPHTHYRIDINONE]	1	0	0	0	0	0		0	0	0	0	0		1	0	0	0	0			Growth Rate (HEK-293T; [3]): 1; Growth Rate (U2OS; [8]): 1; Growth Rate (U2OS; [9]): 1
O=C(NCCCN1CCOC1=O)c1cnc(NCc2cc(Br)ccc2Br)nc1NC1CCCC1	0		0	0	0	0		1		1	1		1		1	0	1		0		Growth Rate (HEK-293T; [10]): 1; Growth Rate (HEK-293T; [9]): 0
CS(=O)(=O)NC[C@H]1CC[C@H](Nc2nc3c(s2)CCSc2ccccc2-3)CC1	0		1	1	0		0	0	0	0	0		0		0	0	1	0	0		Growth Rate (U2OS; [10]): 1
